One experiment deals with T1, GSK-3β (AA 1–420) (Homo sapiens, UniProt P49841).
T1 construct: GSK-3β (AA 1–420)
The experiment is described as follows: GSK-3 inhibition assay (coupled enzyme system). The following applies: read-out: GSK3 Inhibitory Activity (Ki class). Type of experiment: biochemical. As to the method: Final substrate concentrations in the assay were 20 μM ATP (Sigma Chemicals, St Louis, Mo.) and 300 μM peptide (HSSPHQS(PO3H2)EDEEE, American Peptide, Sunnyvale, Calif.). Reactions were carried out at 30° C. and 20 nM GSK-3β. Final concentrations of the components of the coupled enzyme system were 2.5 mM phosphoenolpyruvate, 300 μM NADH, 30 μg/ml pyruvate kinase and 10 μg/ml lactate dehydrogenase.
An assay stock buffer solution was prepared containing all of the reagents listed above with the exception of ATP and the test compound of interest. The assay stock buffer'solution (175 μl) was incubated in a 96 well plate with 5 μl of the test compound of interest at final concentrations spanning 0.002 μM to 30 μM at 30° C. for 10 min. […] The reaction was initiated by the addition of 20 μl of ATP (final concentration 20 μM). Rates of reaction were obtained using a Molecular Devices Spectramax plate reader (Sunnyvale, Calif.) over 10 min at 30° C. The Ki values were determined from the rate data as a function of inhibitor concentration.
The compound numbers correspond to the compound numbers in Table 1.

The target of the next experiment is ERK2 (Homo sapiens, UniProt P28482). The experiment is described as follows: ERK2 inhibition assay (spectrophotometric coupled-enzyme assay). Type of experiment: biochemical. The method, then: The IC50 was evaluated from the rate data as a function of inhibitor concentration. […] The compound numbers correspond to the compound numbers in Table 1.
[1] abbreviates: read-out: ERK2 Inhibitory Activity (Ki class D-F).

Read-outs that look alike come from different tables or passages of the source.

T1 sequence (P49841 whole entry, species assumed, the tested form may be a part): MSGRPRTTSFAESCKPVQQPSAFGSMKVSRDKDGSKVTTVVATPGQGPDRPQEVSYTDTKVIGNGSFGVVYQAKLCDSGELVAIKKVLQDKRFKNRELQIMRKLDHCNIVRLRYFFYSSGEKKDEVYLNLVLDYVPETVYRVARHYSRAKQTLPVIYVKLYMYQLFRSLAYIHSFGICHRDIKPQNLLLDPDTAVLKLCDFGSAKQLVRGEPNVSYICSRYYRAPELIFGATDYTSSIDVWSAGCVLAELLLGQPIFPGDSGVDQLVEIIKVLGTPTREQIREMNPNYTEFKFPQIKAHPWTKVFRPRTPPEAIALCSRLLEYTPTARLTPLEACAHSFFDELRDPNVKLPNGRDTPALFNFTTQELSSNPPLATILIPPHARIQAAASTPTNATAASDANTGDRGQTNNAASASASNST
ERK2, sequence (P28482 whole entry): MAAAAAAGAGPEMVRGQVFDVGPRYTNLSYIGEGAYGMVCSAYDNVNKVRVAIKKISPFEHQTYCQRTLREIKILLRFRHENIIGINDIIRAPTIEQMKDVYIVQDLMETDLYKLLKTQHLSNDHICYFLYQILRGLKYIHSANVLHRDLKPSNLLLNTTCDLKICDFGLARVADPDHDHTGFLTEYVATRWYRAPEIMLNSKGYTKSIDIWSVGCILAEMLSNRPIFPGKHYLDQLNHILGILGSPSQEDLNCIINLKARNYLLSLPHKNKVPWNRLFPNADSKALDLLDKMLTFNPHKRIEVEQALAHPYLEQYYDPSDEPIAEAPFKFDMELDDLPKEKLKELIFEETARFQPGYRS

With `CNc1ncc(C)c(-c2c[nH]c(C(=O)NC(CO)c3ccc(F)c(Cl)c3)c2)n1` (stereo not shown) [III-a-134, 4-(5-Methyl-2-methylamino-pyrimidin-4-yl)-1H-pyrrole-2-carboxylic acid [1-(3-chloro-4-fluoro-phenyl)-2-hydroxy-ethyl]-amide], the values for the Ki on GSK-3β (AA 1–420) and on ERK2 (setting [1]) were above 1000 nM and below 100 nM, respectively. Consider `COc1cccc(Nc2ncc(C)c(-c3c[nH]c(C(=O)NC(CO)c4ccccc4)c3)n2)c1` (stereo not shown) [III-a-137, 4-[2-(3-Methoxy-phenylamino)-5-methyl-pyrimidin-4-yl]-1H-pyrrole-2-carboxylic acid (2-hydroxy-1-phenyl-ethyl)-amide], for which, at GSK-3β (AA 1–420), the inhibition constant Ki is below 100 nM. Turning to `O=C(NC(CO)c1ccccc1)c1cc(-c2nc(Nc3ccccc3)ncc2C2CC2)c[nH]1` (stereo not shown) [III-a-144, 4-(5-Cyclopropyl-2-phenylamino-pyrimidin-4-yl)-1H-pyrrole-2-carboxylic acid (2-hydroxy-1-phenyl-ethyl)-amide], the Ki is above 1000 nM on GSK-3β (AA 1–420) and 100 to 1000 nM at ERK2 (setting [1]). On the same counts, the results for `Cc1ccc(C(CO)NC(=O)c2cc(-c3nc(Nc4ccccc4)ncc3C)c[nH]2)cc1F` (stereo not shown) [III-a-145, 4-(5-Methyl-2-phenylamino-pyrimidin-4-yl)-1H-pyrrole-2-carboxylic acid [1-(3-fluoro-4-methyl-phenyl)-2-hydroxy-ethyl]-amide] are below 100 nM and below 100 nM.

Regarding `Cc1ccc(C(CO)NC(=O)c2cc(-c3nc(Nc4cccc(F)c4)ncc3C)c[nH]2)cc1F` (stereo not shown) [III-a-147, 4-[2-(3-Fluoro-phenylamino)-5-methyl-pyrimidin-4-yl]-1H-pyrrole-2-carboxylic acid [1-(3-fluoro-4-methyl-phenyl)-2-hydroxy-ethyl]-amide], the Ki at GSK-3β (AA 1–420) and at ERK2 (setting [1]) was below 100 nM in each case. As to `Cc1ccc(Nc2ncc(C)c(-c3c[nH]c(C(=O)NC(CO)c4ccccc4)c3)n2)cc1C` (stereo not shown) [III-a-151, 4-[2-(3,4-Dimethyl-phenylamino)-5-methyl-pyrimidin-4-yl]-1H-pyrrole-2-carboxylic acid (2-hydroxy-1-phenyl-ethyl)-amide], the Ki at GSK-3β (AA 1–420) and at ERK2 (setting [1]) was below 100 nM each time.

On to `Cc1cnc(NC(C)C)nc1-c1c[nH]c(C(=O)NC(CO)c2ccccc2)c1` (stereo not shown) [III-a-153, 4-(2-Isopropylamino-5-methyl-pyrimidin-4-yl)-1H-pyrrole-2-carboxylic acid (2-hydroxy-1-phenyl-ethyl)-amide], for which the Ki at GSK-3β (AA 1–420) and at ERK2 (setting [1]) was below 100 nM in each case. As to `Cc1cnc(NCC(F)(F)F)nc1-c1c[nH]c(C(=O)NC(CO)c2ccccc2)c1` (stereo not shown) [III-a-154, 4-[5-Methyl-2-(2,2,2-trifluoro-ethylamino)-pyrimidin-4-yl]-1H-pyrrole-2-carboxylic acid (2-hydroxy-1-phenyl-ethyl)-amide], the Ki at GSK-3β (AA 1–420) and on ERK2 (setting [1]) was below 100 nM each time. Take `Cc1cnc(Nc2ccc(OC(F)(F)F)cc2)nc1-c1c[nH]c(C(=O)NC(CO)c2ccccc2)c1` (stereo not shown) [III-a-157, 4-[5-Methyl-2-(4-trifluoromethoxy-phenylamino)-pyrimidin-4-yl]-1H-pyrrole-2-carboxylic acid (2-hydroxy-1-phenyl-ethyl)-amide]: the inhibition constant (Ki) at GSK-3β (AA 1–420) and on ERK2 (setting [1]) was below 100 nM in each case. Consider `Cc1cnc(NCC(C)C)nc1-c1c[nH]c(C(=O)NC(CO)c2ccccc2)c1` (stereo not shown) [III-a-158, 4-(2-Isobutylamino-5-methyl-pyrimidin-4-yl)-1H-pyrrole-2-carboxylic acid (2-hydroxy-1-phenyl-ethyl)-amide], for which the inhibition constant Ki at GSK-3β (AA 1–420) and at ERK2 (setting [1]) was below 100 nM throughout. Turning to `Cc1cnc(NC(CO)c2ccccc2)nc1-c1c[nH]c(C(=O)NC(CO)c2ccccc2)c1` (stereo not shown) [III-a-166, 4-[2-(2-Hydroxy-1-phenyl-ethylamino)-5-methyl-pyrimidin-4-yl]-1H-pyrrole-2-carboxylic acid (2-hydroxy-1-phenyl-ethyl)-amide], the inhibitory constant (Ki) on GSK-3β (AA 1–420) is above 1000 nM; at ERK2 (ERK2 Inhibitory Activity (Ki class D-F)), 100 to 1000 nM.

In the case of `CCNc1ncc(C)c(-c2c[nH]c(C(=O)NC(CCO)c3ccccc3)c2)n1` (stereo not shown) [III-a-172, 4-(2-Ethylamino-5-methyl-pyrimidin-4-yl)-1H-pyrrole-2-carboxylic acid (3-hydroxy-1-phenyl-propyl)-amide], the Ki at GSK-3β (AA 1–420) and at ERK2 (setting [1]) was above 1000 nM in each case. Regarding `CCNc1ncc(C)c(-c2c[nH]c(C(=O)NC(CCO)c3ccccc3)c2)n1` (stereo not shown) [III-a-173, 4-(2-Ethylamino-5-methyl-pyrimidin-4-yl)-1H-pyrrole-2-carboxylic acid (3-hydroxy-1-phenyl-propyl)-amide], the Ki on GSK-3β (AA 1–420) was above 1000 nM; at ERK2 (setting [1]) it was 100 to 1000 nM. Regarding `Cc1cnc(NCCO)nc1-c1c[nH]c(C(=O)NC(CO)c2ccccc2)c1` (stereo not shown) [III-a-175, 4-[2-(2-Hydroxy-ethylamino)-5-methyl-pyrimidin-4-yl]-1H-pyrrole-2-carboxylic acid (2-hydroxy-1-phenyl-ethyl)-amide], the results for the Ki on GSK-3β (AA 1–420) and on ERK2 (setting [1]) were 100 to 1000 nM and below 100 nM, respectively. For `Cc1cnc(NC(C)CO)nc1-c1c[nH]c(C(=O)NC(CO)c2ccccc2)c1` (stereo not shown) [III-a-176, 4-[2-(2-Hydroxy-1-methyl-ethylamino)-5-methyl-pyrimidin-4-yl]-1H-pyrrole-2-carboxylic acid (2-hydroxy-1-phenyl-ethyl)-amide], the inhibition constant (Ki) at GSK-3β (AA 1–420) and on ERK2 (setting [1]) was below 100 nM throughout. Turning to `Cc1cnc(NCC(C)O)nc1-c1c[nH]c(C(=O)NC(CO)c2ccccc2)c1` (stereo not shown) [III-a-177, 4-[2-(2-Hydroxy-propylamino)-5-methyl-pyrimidin-4-yl]-1H-pyrrole-2-carboxylic acid (2-hydroxy-1-phenyl-ethyl)-amide], the Ki at GSK-3β (AA 1–420) is 100 to 1000 nM; at ERK2 (setting [1]) it was below 100 nM. On the same counts, the results for `Cc1cnc(NCC(C)O)nc1-c1c[nH]c(C(=O)NC(CO)c2ccccc2)c1` (stereo not shown) [III-a-178, 4-[2-(2-Hydroxy-propylamino)-5-methyl-pyrimidin-4-yl]-1H-pyrrole-2-carboxylic acid (2-hydroxy-1-phenyl-ethyl)-amide] are 100 to 1000 nM and below 100 nM. Take `Cc1cnc(NC2CCCCC2O)nc1-c1c[nH]c(C(=O)NC(CO)c2ccccc2)c1` (stereo not shown) [III-a-179, 4-[2-(2-Hydroxy-cyclohexylamino)-5-methyl-pyrimidin-4-yl]-1H-pyrrole-2-carboxylic acid (2-hydroxy-1-phenyl-ethyl)-amide]: the inhibition constant Ki on GSK-3β (AA 1–420) and at ERK2 (setting [1]) was below 100 nM throughout. For `CCN(C(=O)c1cc(-c2ccnc(N)n2)c[nH]1)C(C)C(O)c1ccccc1` (stereo not shown) [III-a-181, 4-(2-Amino-pyrimidin-4-yl)-1H-pyrrole-2-carboxylic acid (2-hydroxy-1-methyl-2-phenyl-ethyl)-ethyl-amide], the inhibition constant Ki at GSK-3β (AA 1–420) is above 1000 nM. Take `CCNc1ncc(C)c(-c2c[nH]c(C(=O)NC(C(=O)OC)c3ccccc3)c2)n1` (stereo not shown) [III-a-184, {[4-(2-Ethylamino-5-methyl-pyrimidin-4-yl)-1H-pyrrole-2-carbonyl]-amino}-phenyl-acetic acid methyl ester]: the Ki on GSK-3β (AA 1–420) was above 1000 nM; at ERK2 (setting [1]), 100 to 1000 nM. Take `CCNc1ncc(COC)c(-c2c[nH]c(C(=O)NC(CO)c3ccccc3)c2)n1` (stereo not shown) [III-a-187, 4-(2-Ethylamino-5-methoxymethyl-pyrimidin-4-yl)-1H-pyrrole-2-carboxylic acid (2-hydroxy-1-phenyl-ethyl)-amide]: on GSK-3β (AA 1–420), the inhibition constant (Ki) is above 1000 nM. For `CCNc1ncc(C)c(-c2c[nH]c(C(=O)NC(CO)c3cccnc3)c2)n1` (stereo not shown) [III-a-188, 4-(2-Ethylamino-5-methyl-pyrimidin-4-yl)-1H-pyrrole-2-carboxylic acid (2-hydroxy-1-pyridin-3-yl-ethyl)-amide], the Ki at GSK-3β (AA 1–420) was above 1000 nM; on ERK2 (setting [1]), 100 to 1000 nM. On the same counts, the results for `CCNc1ncc(CO)c(-c2c[nH]c(C(=O)NC(CO)c3ccccc3)c2)n1` (stereo not shown) [III-a-189, 4-(2-Ethylamino-5-hydroxymethyl-pyrimidin-4-yl)-1H-pyrrole-2-carboxylic acid (2-hydroxy-1-phenyl-ethyl)-amide] are above 1000 nM and below 100 nM.

Turning to `CCNc1ncc(C)c(-c2c[nH]c(C(=O)NC(CO)c3cc(F)cc(C(F)(F)F)c3)c2)n1` (stereo not shown) [III-a-190, 4-(2-Ethylamino-5-methyl-pyrimidin-4-yl)-1H-pyrrole-2-carboxylic acid [1-(3-fluoro-5-trifluoromethyl-phenyl)-2-hydroxy-ethyl]-amide], the Ki on GSK-3β (AA 1–420) and on ERK2 (setting [1]) was 100 to 1000 nM throughout. For `CCNc1ncc(C)c(-c2c[nH]c(C(=O)NC(CO)c3cccc(F)c3)c2)n1` (stereo not shown) [III-a-191, 4-(2-Ethylamino-5-methyl-pyrimidin-4-yl)-1H-pyrrole-2-carboxylic acid [1-(3-fluoro-phenyl)-2-hydroxy-ethyl]-amide], the results for the Ki at GSK-3β (AA 1–420) and on ERK2 (setting [1]) were 100 to 1000 nM and below 100 nM, respectively.

`Cc1ccccc1Nc1ncc(C)c(-c2c[nH]c(C(=O)NC(CO)c3cccc(Cl)c3)c2)n1` (stereo not shown) [III-a-224, 4-(5-Methyl-2-o-tolylamino-pyrimidin-4-yl)-1H-pyrrole-2-carboxylic acid [1-(3-chloro-phenyl)-2-hydroxy-ethyl]-amide]: on GSK-3β (AA 1–420), the Ki is below 100 nM. Still for that read-out and setting: under `Cc1cnc(NN2CCOCC2)nc1-c1c[nH]c(C(=O)NC(CO)c2ccccc2)c1` (stereo not shown) [III-a-228, 4-[5-Methyl-2-(morpholin-4-ylamino)-pyrimidin-4-yl]-1H-pyrrole-2-carboxylic acid (2-hydroxy-1-phenyl-ethyl)-amide] stands below 100 nM.

For orientation: Ki means a measure of affinity in units of concentration, obtained from inhibition or displacement.

(Values after patent publication US7253187B2, “Heterocyclic inhibitors of ERK2 and uses thereof” (Vertex Pharmaceuticals Incorporated, priority 2001, dated 2007).)
